One block for each molecule: values may come before it.
What was measured:
CgAKR-1 [1] = molecular target: T1, CgAKR-1 (Coptotermes gestroi, UniProt A0A140CVV2); test: X-ray crystal structure; conditions: cofactor-binding site; complex described in text, ligand state not stated explicitly
T1 construct: full-length ORF of 334 residues, N-terminal 6xHis tag (pET-28a, NheI/BamHI), E. coli ArcticExpress (DE3); Ni and size exclusion purified
T1 sequence (A0A140CVV2 1-334): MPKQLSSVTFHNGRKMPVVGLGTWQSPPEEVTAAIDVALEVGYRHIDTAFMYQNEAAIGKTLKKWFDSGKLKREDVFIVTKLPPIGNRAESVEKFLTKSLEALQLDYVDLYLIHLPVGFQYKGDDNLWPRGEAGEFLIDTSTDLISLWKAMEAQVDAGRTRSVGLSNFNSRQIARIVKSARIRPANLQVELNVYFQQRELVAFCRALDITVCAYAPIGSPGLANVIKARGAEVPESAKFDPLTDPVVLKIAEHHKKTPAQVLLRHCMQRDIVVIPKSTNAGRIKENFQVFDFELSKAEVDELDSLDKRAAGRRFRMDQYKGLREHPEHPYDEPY

CgAKR-1 [2] = molecular target: T1, CgAKR-1; test: NADPH oxidation at […] nm, varied NADPH; assay type: biochemical; conditions: 5 mM 2-nitrobenzaldehyde; 50 mM sodium phosphate pH 7.0 (standard assay), 30 °C; Kd apparently from kinetics
purified protein = substrate: O=Cc1ccccc1[N+](=O)[O-]; test: purified protein; assay type: biochemical, Coptotermes gestroi; conditions: 0.2 mM NADPH, 50 mM sodium phosphate pH 7.0 (standard assay), 30 °C

Molecule: NC(=O)c1ccc[n+]([C@@H]2O[C@H](COP(=O)(O)OP(=O)(O)OC[C@H]3O[C@@H](n4cnc5c(N)ncnc54)[C@H](OP(=O)(O)O)[C@@H]3O)[C@@H](O)[C@H]2O)c1 [NADP]
X-ray crystal structure (CgAKR-1 [1]): the pocket was mainly delimited by the cofactor (NADP) and nine amino acids

Kd (CgAKR-1 [2]): 60 µM
Molecule: NC(=O)C1=CN([C@@H]2O[C@H](COP(=O)(O)OP(=O)(O)OC[C@H]3O[C@@H](n4cnc5c(N)ncnc54)[C@H](OP(=O)(O)O)[C@@H]3O)[C@@H](O)[C@H]2O)C=CC1 [NADPH]

B1: CgAKR-1 (Coptotermes gestroi) (protein)
chain: T1 sequence (A0A140CVV2 1-334)
notes: full-length ORF of 334 residues, N-terminal 6xHis tag (pET-28a, NheI/BamHI), E. coli ArcticExpress (DE3); Ni and size exclusion purified
Km (purified protein): 150 µM
kcat (purified protein): 7.5 s⁻¹
